# Where “and” joins values, the source holds several entries; their conditions need not be identical. Equal values may be shown once.
# Tested on: Sprague-Dawley rats
# Assay: Retinoid analyses in liver, serum and kidney
# Type: in vivo, Rattus norvegicus
# Parameters: key to Dose response, Liver Retinol: D: significant dose response (for results see Table 2 in the text); T: significant trend; key to Kidney Retinyl esters, Dose response / Liver All-trans RA, Dose response / Kidney All-trans RA, Dose response / Serum Retinol, Dose response: D: significant dose response (for results, see Table 2); T: significant trend
# Method: Retinoids in liver, serum, and kidney were analyzed according to Schmidt et al.. The polar retinoids 9-cis-retinoic acid (9-cis-RA), 13-cis-retinoic acid (13-cis-RA), 13-cis-4-oxo-retinoic acid (13-cis-4-o-RA), 9-cis-4-oxo-13,14-dihydro-retinoic acid (9-cis-4-o-13,14-dh-RA), all-trans retinoic acid (all-trans RA) and the apolar retinoids retinol and retinyl palmitate were extracted by a single liquid-extraction, separated from each other via solid-phase extraction using an aminopropyl phase, and then injected onto two different HPLC systems that were coupled with UV detection. […] The limits of detection (LOD) for all-trans RA and 9c-4o-13,14-dh-RA were 0.7 and 1.0 pmol/g tissue, and 0.3 and 0.6 pmol/ml serum, respectively. Retinol and retinyl palmitate were separated on a J'sphere ODS-H80 (4.6×150 mm, 4 µm particle size) obtained from YMC (Schermbeck, Germany), and were detected at 325 nm. The LOD for retinol and retinyl palmitate were 5.6 and 5.5 pmol/g tissue, and 4.2 and 4.2 pmol/ml serum, respectively.
# Data were also analyzed using the BMD method, which is based on dose-response modeling of the full data set using a nested family of exponential and Hill models. The analyses were done on data of males and females combined, using sex as a covariate. […] In that case, different Critical Effect Doses (CEDs) and CEDs at the lowest bound of the confidence interval (CED-L) were generated for each sex. If no difference between sexes is detected, a CED and CED-Ls for the combined data is generated. However, this was also done if the curve fits are close, and separate analyses for males and females were then performed manually. CEDs and CED-Ls were calculated at the predefined Critical Effect Size (CES) of 5% (EFSA standard) or 10%.
# [1] = females, CES 5%, total dose based
# [2] = females, CES 10%, total dose based
# [3] = females, adipose tissue concentration based
# [4] = males, total dose 0-1700 mg/kg bw
# [5] = males, total dose 3 mg/kg bw, group mean, N=5
# [6] = males, total dose 10 mg/kg bw, group mean, N=5
# [7] = males, total dose 30 mg/kg bw, group mean, N=5
smiles,measurement,setting,value
"Clc1cc(Cl)c(-c2cc(Cl)c(Cl)c(Cl)c2Cl)cc1Cl [PCB 180, 2,2′,3′,4,4′,5,5′-heptachlorobiphenyl]","Kidney all-trans RA amount, CED-L",[1],319 mg/kg bw
same,"Kidney all-trans RA concentration, CED",[1],457 mg/kg bw
same,"Kidney all-trans RA concentration, CED-L",[1],321 mg/kg bw
same,"Kidney retinol amount, CED",[1],355 mg/kg bw
same,"Kidney retinol amount, CED-L",[1],221 mg/kg bw
same,"Kidney retinol concentration, CED",[1],335 mg/kg bw
same,"Kidney retinol concentration, CED-L",[1],216 mg/kg bw
same,"Liver 9c-4o-13,14-dh-RA amount, CED",[1],13.1 mg/kg bw
same,"Liver 9c-4o-13,14-dh-RA amount, CED-L",[1],8.29 mg/kg bw
same,"Liver 9c-4o-13,14-dh-RA conc., CED",[1],12 mg/kg bw and 12.2 mg/kg bw
same,"Liver 9c-4o-13,14-dh-RA conc., CED-L",[1],8.77 mg/kg bw
same,"Liver retinol concentration, CED",[1],156 mg/kg bw
same,"Liver retinol concentration, CED-L",[1],119 mg/kg bw
same,"Liver retinyl esters amount, CED",[1],254 mg/kg bw
same,"Liver retinyl esters amount, CED-L",[1],189 mg/kg bw
same,"Liver retinyl esters concentration, CED",[1],122 mg/kg bw
same,"Liver retinyl esters concentration, CED-L",[1],104 mg/kg bw
same,"Serum retinol concentration, CED",[1],400 mg/kg bw
same,"Serum retinol concentration, CED-L",[1],242 mg/kg bw
same,"Kidney all-trans RA amount, CED",[2],965 mg/kg bw
same,"Kidney all-trans RA amount, CED-L",[2],625 mg/kg bw
same,"Kidney all-trans RA concentration, CED",[2],892 mg/kg bw
same,"Kidney all-trans RA concentration, CED-L",[2],626 mg/kg bw
same,"Kidney retinol amount, CED",[2],694 mg/kg bw
same,"Kidney retinol amount, CED-L",[2],431 mg/kg bw
same,"Kidney retinol concentration, CED",[2],655 mg/kg bw
same,"Kidney retinol concentration, CED-L",[2],421 mg/kg bw
same,"Liver 9c-4o-13,14-dh-RA amount, CED",[2],27.2 mg/kg bw
same,"Liver 9c-4o-13,14-dh-RA amount, CED-L",[2],17.2 mg/kg bw
same,"Liver 9c-4o-13,14-dh-RA conc., CED",[2],25.3 mg/kg bw
same,"Liver 9c-4o-13,14-dh-RA conc., CED-L",[2],18.2 mg/kg bw
same,"Liver retinol concentration, CED",[2],374 mg/kg bw
same,"Liver retinol concentration, CED-L",[2],263 mg/kg bw
same,"Liver retinyl esters amount, CED",[2],522 mg/kg bw
same,"Liver retinyl esters amount, CED-L",[2],388 mg/kg bw
same,"Liver retinyl esters concentration, CED",[2],252 mg/kg bw
same,"Liver retinyl esters concentration, CED-L",[2],214 mg/kg bw
same,"Serum retinol concentration, CED",[2],781 mg/kg bw
same,"Serum retinol concentration, CED-L",[2],474 mg/kg bw
same,"Kidney all-trans RA concentration, CED",[3],2930 µg/g lipid
same,"Kidney retinol concentration, CED",[3],2060 µg/g lipid
same,"Liver 9c-4o-13,14-dh-RA concentration, CED",[3],55.5 µg/g lipid and 56 µg/g lipid
same,"Liver retinol concentration, CED",[3],1000 µg/g lipid
same,"Liver retinyl ester concentration, CED",[3],793 µg/g lipid
same,"Serum retinol concentration, CED",[3],2470 µg/g lipid
same,"Serum retinol concentration, Maximum response","females, controls vs high dose, fitted model",23.1%
same,"Liver retinol concentration, max. decrease",males,47%
same,"Liver retinyl ester concentration, max. decrease",males,63%
same,"Dose response, Kidney Retinol",[4],"D, T"
same,"Dose response, Kidney Retinyl esters",[4],"D, T"
same,"Dose response, Liver All-trans RA",[4],"D, T"
same,"Dose response, Liver Retinol",[4],D
same,"Dose response, Liver Retinyl esters",[4],"D, T"
same,"Kidney Retinol, Dose response",[4],"D, T"
same,"Kidney Retinyl esters, Dose response",[4],D
same,"Liver All-trans RA, Dose response",[4],D
same,"Liver Retinol, Dose response",[4],"D, T"
same,"Liver Retinyl esters, Dose response",[4],"D, T"
same,Kidney All-trans RA,[5],35.9 pmol
same,Kidney Retinol,[5],14.2 nmol
same,Kidney Retinyl esters,[5],4.99 nmol
same,"Liver 9-cis-4o-13,14-dh RA",[5],218 pmol
same,Liver All-trans RA,[5],544 pmol
same,Liver Retinol,[5],0.28 µmol
same,Liver Retinyl esters,[5],11.5 µmol
same,Kidney All-trans RA,[6],36.9 pmol
same,Kidney Retinol,[6],17.6 nmol
same,Kidney Retinyl esters,[6],8.73 nmol
same,Liver All-trans RA,[6],632 pmol
same,Liver Retinol,[6],0.32 µmol
same,Liver Retinyl esters,[6],12.5 µmol
same,Kidney All-trans RA,"males, total dose 30 mg/kg bw",31.8 pmol/g
same,Kidney Retinol,"males, total dose 30 mg/kg bw",16.9 nmol/g
same,Kidney Retinyl esters,"males, total dose 30 mg/kg bw",7.83 nmol/g
same,Liver All-trans RA,"males, total dose 30 mg/kg bw",44.5 pmol/g
same,Liver Retinol,"males, total dose 30 mg/kg bw",20.5 nmol/g
same,Liver Retinyl esters,"males, total dose 30 mg/kg bw",0.77 µmol/g
same,Serum Retinyl esters,"males, total dose 30 mg/kg bw",46.5 pmol/mL
same,Liver Retinyl esters,"males, total dose 30 mg/kg bw, Liver",46.5 pmol/mL
same,Liver Retinol,"males, total dose 30 mg/kg bw, Liver, n=4",1.65 pmol/mL
same,Kidney All-trans RA,[7],33.3 pmol
same,Kidney Retinol,[7],17.5 nmol
same,Kidney Retinyl esters,[7],8.12 nmol
same,Liver All-trans RA,[7],623 pmol
same,Liver Retinol,[7],0.29 µmol
same,Liver Retinyl esters,[7],10.7 µmol
same,Serum Retinol,"males, total dose 30 mg/kg bw, n=4",1.65 pmol/mL
same,Kidney All-trans RA,"males, total dose 100 mg/kg bw",34.8 pmol/g
same,Kidney Retinol,"males, total dose 100 mg/kg bw",16.3 nmol/g
same,Kidney Retinyl esters,"males, total dose 100 mg/kg bw",8.27 nmol/g
same,Liver All-trans RA,"males, total dose 100 mg/kg bw",44.4 pmol/g
same,Liver Retinol,"males, total dose 100 mg/kg bw",15.7 nmol/g
same,Liver Retinyl esters,"males, total dose 100 mg/kg bw",0.62 µmol/g
same,Serum Retinyl esters,"males, total dose 100 mg/kg bw",84.5 pmol/mL

# From publication PMC4138103 (PLoS ONE, 2014)
